This note sets out measurements from PMC9045388, “Identification of a KPC Variant Conferring Resistance to Ceftazidime-Avibactam from ST11 Carbapenem-Resistant Klebsiella pneumoniae Strains” (Microbiology Spectrum, 2022).

Molecules are shown by their SMILES.

The target in this assay is T1, KPC-2 (Klebsiella pneumoniae, UniProt Q9F663).
T1 construct: untagged, full gene in pCR-BluntII-Topo (pTOPO-KPC-2), expressed in E. coli TOP10; ion exchange and gel filtration
Nature of the assay: steady-state hydrolysis, UV-Vis at […] nm. The settings on record: 100 mM sodium phosphate, pH 7.0. Format: biochemical.

T1 sequence (Q9F663 25-293 limits assumed): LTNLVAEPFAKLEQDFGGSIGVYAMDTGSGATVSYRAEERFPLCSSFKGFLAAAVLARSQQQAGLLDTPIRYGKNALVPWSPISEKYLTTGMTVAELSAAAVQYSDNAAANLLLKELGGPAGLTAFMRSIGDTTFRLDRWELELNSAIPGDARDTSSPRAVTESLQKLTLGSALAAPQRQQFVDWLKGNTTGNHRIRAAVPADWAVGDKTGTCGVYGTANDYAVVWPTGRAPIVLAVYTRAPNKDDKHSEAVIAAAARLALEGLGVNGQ

Broadly, the Km is the concentration of substrate that gives half-maximal velocity. For `O=C(Cc1cccs1)N[C@@H]1C(=O)N2C(C(=O)O)=C(/C=C/c3ccc([N+](=O)[O-])cc3[N+](=O)[O-])CS[C@H]12` [nitrocefin], the Km is 17.9 µM.
